# Assay results: patent US20260364186A1, “Chemical Conjugates, Compositions, and Methods of Preparation and Use Thereof” (Transfection Holdings Limited, priority 2022, published 2026)
# Values joined by “and” are separate entries in the source; they are usually repeats but may differ in a detail not shown here. Equal values may be shown once.
# Assays:
# Assay type in all cases: cell-based, human
# [1] = test system: NZM11 (BRAF V600E) melanoma cells; assay: Time course of uptake by FACS (Example 5); settings: 200 nM
# Experimental: FIG. 5A: Time course of uptake for 124, 125, 131, 132 conjugate compounds. Tests were performed using 200 nM each conjugate and 5, 30, or 60 minute incubation with melanoma cell line NZM11 (BRAF V600E mutant metastatic melanoma). Mean fluorescent intensities (MFI), n=300 mean±SD. The cells were sorted by FACS.
# FIG. 5B: Time course of uptake for 124 and 3-azido BODIPY FL. Tests were performed using 200 nM each compound and 1 or 3 hour incubation with melanoma cell line NZM11 (BRAF V600E mutant metastatic melanoma). Mean fluorescent intensities (MFI). n=2000-3000 mean±SD. The cells were sorted by FACS.
# Materials and methods: NZM11 cells were suspended at […] dispensed into 96 well plates and left to settle for 48 hours. 10 μL of 10 mM stock solutions in DMSO from the conjugates coupled to BODIPY were diluted with HBSS to afford 400 nM solution. Then, 400 nM compounds and DMSO solutions were diluted 1:1 with MEMα media to afford 200 nM solutions. After 48 hours the media was removed from the 96 well plates and 200 μL of 200 nM conjugates solutions dispensed to each well (in duplicate) and incubated for 5 minutes, 30 minutes and 60 minutes at 37 °C (for the first test) or 60 minutes and 3 hours (for the second test). After indicated incubation time, the media was removed and cells washed with PBS. 100 μL of TrypLE trypsin (ThermoFisher Scientific) were added to each well and incubated for 6.5 minutes at 37 °C after which, 100 μL of MEMα media were added and samples were sorted through FACS biosort. FACS results output represented the mean of the fluorescence intensities (in arbitrary units) measured for cells sorted in every sample. Uptake rate was calculated by the equation: Uptake rate=(MFI2−MFI1)/(T2−T1)
# whereby: MFI=mean fluorescent intensities; T=time (at which time the sample was taken); Uptake rate units: fluorescence intensities units per minute.
# [2] = test system: NZM40 (NRAS Q16H) melanoma cells; assay: FACS uptake of BODIPY FL conjugates, 200 nM, 5 min (Example 2)
# Experimental: FIG. 2. Conjugate compounds coupled to BODIPY FL were tested for uptake using 200 nM each conjugate and 5 minute incubation with melanoma cell line NZM11 (BRAF V600E mutant metastatic melanoma), melanoma cell line NZM40 (NRAS Q16H mutant metastatic melanoma) and melanoma cell line NZM9 (BRAF and NRAS wildtype metastatic melanoma). Mean fluorescent intensities (MFI). 2,000 cells (NZM11), 1,000 cells (NZM40) and 500-1,000 cells (NZM9). Cells were sorted by FACS. Bars represent mean±SD. Results were from a single experiment done in triplicate.
# NZM40 is an adherent cell line which was originally derived from a metastatic melanoma from a patient, in 2004. This human metastatic melanoma is identified with code CBA-1381 from Cell bank Australia. […] Ras is a superfamily of proteins implicated in cell growth, survival and differentiation. NRAS (neuroblastoma rat sarcoma) was the first oncogene recognized in melanoma and mutations in NRAS account for 20% of all melanomas. NRAS mutations primarily occur at position 61 and involve amino acid change from glutamine (Q) to arginine (R), lysine (K), leucine (L) or histidine (H). These mutations block NRAS into a GTP-bound state damaging its GTPase activity (FIG. 1). Patients are usually older (>55 years) with previous UV exposure. See Garcia-Alverez et al., 2021.
# For screening, NZM11, NZM40 and NZM9 cells were suspended at […] dispensed into 96 well plates and left to settle for 48 hours. Then, 10 μL of 10 mM stock solutions in DMSO for the conjugates were diluted with HBSS to afford 400 nM solution. Next, 400 nM compounds and DMSO solutions were diluted 1:1 with MEMα media to afford 200 nM solutions. After 48 hours the media was removed from the 96 well plates and 200 μL of 200 nM conjugates solutions dispensed to each well (in triplicate) and incubated for 5 minutes at 37 °C. After 5 minutes, the media was removed and cells washed with PBS. Then, 100 μL of TrypLE trypsin (ThermoFisher Scientific) were added to each well and incubated for 5 minutes at 37 °C after which, 100 μL of MEMα media were added and samples were sorted through FACS biosort. The FACS results output were represented as the mean of the fluorescence intensities (in arbitrary units) measured for cells sorted in every sample.
# [3] = test system: Jurkat cells; assay: FACS uptake of BODIPY FL conjugates in Jurkat cells (Example 3); settings: 200 nM
# Experimental: FIG. 3B: Conjugate compounds coupled to BODIPY FL were tested for uptake using 200 nM each conjugate and 5 minute incubation with immortalized T lymphocyte cell line, Jurkat cells. Mean fluorescent intensities (MFI). 1,000 cells sorted by FACS. Bars represent mean±SD. Results represent a single experiment done in duplicate.
# Materials and methods: Jurkat cells have been previously shown to be defective in the expression of two lipid phosphatases, PTEN (phosphatase and tensin homologue) and SHIP (SH2-domain-containing inositol polyphosphate 5′ phosphatase). The biological implications of SHIP deficiency in T cells remain under evaluation, but the loss of PTEN leads to activation of the phosphatidylinositol 3-kinase (PI3K)-signalling pathway. See Abraham and Weiss, 2004. This activation of PI3K protein is also on NZM40 melanoma cell line, and represents a key mutation for its sustained proliferation. See Silva et al., 2017. For these experiments, Jurkat cells were diluted on RPMI media (supplemented with 10% FBS+1% penicillin-streptomycin) to afford 400 cells/μL. 2 μL of 100 μM stock solutions in DMSO from 138 and pantothenic acid/pantothenic acid derivatives coupled to BODIPY were diluted with 998 μL of RPMI media (supplemented with 10% FBS+1% penicillin-streptomycin) to afford 200 nM solution. 100,000 cells were dispensed to Eppendorf tubes, centrifuged for 1.5 min at 5000 rcf and the supernatant was removed. The cells then were incubated with 500 μL of solutions at 200 nM for 4.5 min and 37 °C. After the incubation time, cells were centrifuged for 1.5 minutes at 5000 rcf. Supernatant was removed and cell pellet re-suspended in 200 μL fresh RPMI media, transferred to 96 well-plate and run on FACS machine, approximately 1,000 cells analysed.
# [4] = test system: HT29 (colorectal cancer cell line); assay: FACS uptake of BODIPY FL conjugates (Example 4); settings: 200 nM, 5 min
# Experimental: FIG. 4A: Conjugate compounds coupled to BODIPY FL were tested for uptake using 200 nM each conjugate and 5 minute incubation with colorectal cancer cell line HT29. Mean fluorescent intensities (MFI). 1,000 cells were sorted by FACS.
# Materials and methods: The HT-29 line was originally isolated from a primary tumour in 1964 from a person. This cell line is positive for expression of N-ras and overexpression of p53 antigen. The human colon adenocarcinoma cell line HT29, is not only used to study the biology of human colon cancers, but it is receiving special interest in studies focused on food digestion and bioavailability due to the ability to express characteristics of mature intestinal cells. The application of this cell line to transport studies of drugs and food compounds is illustrated, especially when the effect of the mucus layer is considered or used as co-culture in combination with Caco-2 cells. These cells have shown a high rate of glucose consumption and therefore, they require high glucose concentration in the medium. Verhoeck et al., 2015.
# For these experiments, HT-29 or MEF cells were diluted on αMEM media (supplemented with 10% FBS+1% penicillin-streptomycin) to give a 250 cells/μL suspension of which 200 μL were aliquoted into each well of a 96 well plate followed by incubation for 24 hours. Next, 2 μL of 100 μM stock solutions in DMSO from the conjugates coupled to BODIPY were diluted with 998 μL of αMEM media to give a 200 nM solution. After 24 hour incubation, media was removed and 200 μL of 138 and pantothenic acid/pantothenic acid derivatives coupled to BODIPY 200 nM solutions were added and cells were incubated for 5 minutes at 37 °C. After 5 minutes, the compounds and DMSO solutions were removed and cells were washed with PBS. Then, 100 μL of TrypLE trypsin were added to each well and incubated for 5 minutes at 37 °C. After this time, 100 μL of DMEM media were added to the wells and samples were sorted through FACS biosort. The studies were completed in duplicated wells.
# [5] = test system: NZM11 (BRAF V600E mutant metastatic melanoma) cells; assay: Sulforhodamine B (SRB) assay of viability / proliferation, auranofin conjugates (Example 8)
# Experimental: FIG. 8: Effect of 136 and 137 (auranofin conjugates) on viability of NZM11 melanoma cells. Cells were incubated with 136 and 137 at 10 μM final concentration and kept at 37 °C for 48 hours. Pantothenic acid (PA), CJ-15,801, and biotin were tested at 200 μM final concentration. […] Two batches of auranofin were tested at 10 μM final concentration.
# FIG. 9: The viability data from FIG. 8 was normalised to the treatment plate and DMSO control and plotted as a percentage of cell growth. Individual data points represent technical replicates. Curve indicates non-linear regression slope, which allows determination of IC50 values.
# Materials and methods: NZM11 cells were cultured in MEMα media with an initial count of 1020 cells/μL. The cells were then diluted to get 25 cells per μL and 200 μL of this suspension (5000 cells per well), dispensed into 96 well plates and left to settle for 24 hours. 10 mM stock solutions of 136, 137, and auranofin were diluted with 1% FBS MEMα media to give 10 nM, 30 nM, 100 nM, 300 nM, 1 μM, 3 μM, 10 μM, 30 μM and 100 μM solutions. After 24 hours the media was removed from the 96 well plates. To individual wells 200 μL of each dilution were dispensed in triplicate for three groups (136, 137, and auranofin): 1% FBS MEMα media only (DMSO control), 10 nM, 30 nM, 100 nM, 300 nM, 1 μM, 3 μM, 10 μM, 30 μM and 100 μM. The cells were incubated at 37 °C, 5% 02 and 5% CO2 for 48 hours.
# In order to test the potency of 136 and 137, the IC50 values were calculated for these auranofin conjugates. For analysis of the treatment plate (Tz) a SRB assay was utilised. For this assay, 50 μL of 50% (w/v) ice-cold trichloroacetic acid (TCA) was added to each well. To achieve this, 5 g of TCA was made up to 10 mL with milliQ H2O. This was cooled on ice. Incubation was carried out for 1 hour at 4 °C to fix cells. TCA and media were removed from cells. Five milliQ washes were carried out and the plate was left to air dry. Next, 50 μL of 0.4% SRB solution (prepared in 1% acetic acid) was added to each well and incubated for 10 minutes at room temperature. The SRB solution was removed and five milliQ washes were carried out. Then, 100 μL of 10 mM Tris solution was added to each well, and the dye was solubilised. Absorbance at 515 nm was read on plate reader. Data was normalized to Tz plate, as per NCI60 screening method (https://dtp.cancer.gov/discovery_development/nci-60/methodology.htm).
molecule,measurement,setting,value
"CC1=CC(C)=[N+]2C1=Cc1ccc(CCCN=[N+]=[N-])n1[B-]2(F)F [3-azido BODIPY FL, 3-Azido[4,4-difluoro-5,7-dimethyl-4-bora-3a,4a-diaza-s-indacene-3-yl]propane, reference compound]",times lower intensities than 124,[1]; 1 hour,6 times
same,times lower intensities than 124,[1]; 3 hours,6 times
same,"uptake / intensities, in words","[1]; NZM11, time course",low uptake rate
"CC1=CC(C)=[N+]2C1=Cc1ccc(CCCn3cc(CCNC(=O)/C=C\NC(=O)[C@@H]4OC(C)(C)OCC4(C)C)nn3)n1[B-]2(F)F [Compound 129, (Z)—N-((((3-[4,4-Difluoro-5,7-dimethyl-4-bora-3a,4a-diaza-s-indacene-3-yl]propyl)-1H-1,2,3-triazol-4-yl)ethylamino)-3-oxoprop-1-enyl)-2,2,5,5-tetramethyl-1,3-dioxane-4-carboxamide]",uptake (fluorescence intensities),[2],showed selectivity
same,uptake / targeting,[3],showed targeting
same,uptake (fluorescent intensities),[4],higher uptakes than their diol counterparts
"CC1=CC(C)=[N+]2C1=Cc1ccc(CCCn3cc(CCNC(=O)/C=C\NC(=O)[C@@H](O)C(C)(C)CO)nn3)n1[B-]2(F)F [Compound 130, (Z)—N-((((3-[4,4-Difluoro-5,7-dimethyl-4-bora-3a,4a-diaza-s-indacene-3-yl]propyl)-1H-1,2,3-triazol-4-yl)ethylamino)-3-oxoprop-1-enyl)-2,4-dihydroxy-3,3-dimethylbutanamide]",uptake (fluorescence intensities),[2],showed selectivity
"(R,E)-((4-(3-(2,4-dihydroxy-3,3-dimethylbutanamido)acrylamido)phenyl)thio)(triethyl-phosphaneyl) Gold (I) [Compound 137]","reduction on viability, as compared to auranofin itself","[5]; 10 μM, 48 hours",more than 95%
same,"effect of CJ-15,801/138 on activity",[5]; 138 20 times more concentrated (200 μM),not affected
same,IC50 relative to auranofin,"[5]; NZM11, 48 hours",five times higher than auranofin
same,IC50,"[5]; NZM11, 48 hours, SRB assay",2.94 µM and ~2.8 µM
same,effect of biotin and pantothenic acid on activity,[5]; vitamins 20 times more concentrated (200 μM),not affected
